Test results: patent publication US9045440B2, “Desazadesferrothiocin and desazadesferrothiocin polyether analogues as metal chelation agents” (FerroKin Biosciences, Inc., priority 2010, dated 2015)
Like-named read-outs stand apart in the source and are kept apart here.

How the values were obtained:
[1] = mode of iron excretion; cited from earlier work
[2] = pH 7.4
Method: Measurements were taken via LC/MS.
To each 5 μL aliquot of stock solution of each sample was added 500 μL of PBS pH 7.4 and 500 μL of octanol and a stir bar. […] Stir bars were removed and samples centrifuged at 15,000 g for 15 minutes to separate the phases, and pipette and syringe were used to remove the upper (octanol) and lower (buffer) phases to empty tubes, respectively. Aliquots of 5 μL were taken from upper phases and diluted with 495 μL of methanol. Aliquots of 50 μL were taken from lower phases and diluted with 450 μL of methanol. Reference solutions of progesterone or metopolol were also prepared and tested as standards.

[3] = cited from earlier work
[4] = rats, 300 μmol/kg intraperitoneally immediately after uranyl acetate; cited from earlier work
[5] = ratio of ICE in one species (monkey) to the other (rat)

Compound | Rodent ICE [urine/bile] [1] | Primate ICE [urine/bile] ([3]; mode of iron excretion) | ICE Ratio [3, 5] | further results
COCCOCCOc1cccc(C2=N[C@@](C)(C(=O)O)CS2)c1O [Example D, (S)-2-(2-hydroxy-3-(2-(2-methoxyethoxy)ethoxy)phenyl)-4-methyl-4,5-dihydrothiazole-4-carboxylic acid] | [99/1] | – | – | –
COCCc1ccc(OCC(O)CNC(C)C)cc1 (centres unmarked) [metopolol] | – | – | – | LogD [2]: −0.27
COCCOCCOCCOCCOc1cccc(C2=N[C@@](C)(C(=O)O)CS2)c1O [Example F, (S)-2-(3-(2,5,8,11-tetraoxatridecan-13-yloxy)-2-hydroxyphenyl)-4-methyl-4,5-dihydrothiazole-4-carboxylic acid] | [98/2] | [25/75] | 0.8 | –
COCCOCCOc1ccc(C2=N[C@@](C)(C(=O)O)CS2)c(O)c1 [Example A, (S)-2-(2-hydroxy-4-(2-(2-methoxyethoxy)ethoxy)phenyl)-4-methyl-4,5-dihydrothiazole-4-carboxylic acid] | [97/3] | – | – | ICE Ratio ([3]; primate (capsule) to rodent): 1.0; ICE Ratio ([3]; primate (sodium salt) to rodent): 1.1; Primate ICE [urine/bile] ([3]; given as capsule): [93/7]; Primate ICE [urine/bile] ([3]; given as sodium salt): [83/17]
COCCOCCOCCOc1ccc(C2=N[C@@](C)(C(=O)O)CS2)c(O)c1 [Example B, (S)-2-(2-hydroxy-4-(2-(2-(2-methoxyethoxy)ethoxy)ethoxy)phenyl)-4-methyl-4,5-dihydrothiazole-4-carboxylic acid] | [90/10] | [96/4] | 4.6 | Uranium Excretion [urine/bile] [4]: [35/65]
COCCOCCOCCOCCOc1ccc(C2=N[C@@](C)(C(=O)O)CS2)c(O)c1 [Example C, (S)-2-(4-(2,5,8,11-tetraoxatridecan-13-yloxy)-2-hydroxyphenyl)-4-methyl-4,5-dihydrothiazole-4-carboxylic acid] | [99/1] | [52/48] | 0.8 | –
COCCOCCOCCOc1cccc(C2=N[C@@](C)(C(=O)O)CS2)c1O [Example E, (S)-2-(2-hydroxy-3-(2-(2-(2-methoxyethoxy)ethoxy)ethoxy)phenyl)-4-methyl-4,5-dihydrothiazole-4-carboxylic acid] | [95/5] | [95/5] | 2.2 | –
